Columns and labels:
[1] = target: Beta5 (purified human constitutive proteasome) (Homo sapiens, UniProt P28074); assay: Determination of Beta5 activity (fluorescence intensity assay, Suc-LLVY-AMC); assay type: biochemical; details: purified human constitutive proteasome 1.0 nM, 40 μM Suc-LLVY-AMC, 37° C.
How it was run: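 Purified human constitutive proteasome (1.0 nM) was preincubated 30 min at 37 °C with compounds (10 μM to 38 pM) in 50 mM Tris pH 7.4, 0.03% SDS. Suc-LLVY-AMC (40 μM) was then added and fluorescence (ex 350/em 450 nm) read after 90 min at 37 °C.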

[2] = target: LMP7 (purified human immuno proteasome) (Homo sapiens, UniProt P28062); assay: Determination of LMP7 activity (fluorescence intensity assay, Suc-LLVY-AMC); assay type: biochemical; details: for IC50: 40 μM Suc-LLVY-AMC, 37° C.
How it was run: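 Purified human immunoproteasome (0.5 nM or 0.25 nM) preincubated 30 min at 37 °C with compounds (10 μM to 38 pM) in 50 mM Tris pH 7.4, 0.03% SDS. Suc-LLVY-AMC added at 40 μM; after 90 min at 37 °C, fluorescence read at ex 350/em 450 nm.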

[3] = purified human immuno proteasome 0.5 nM
[4] = purified human immuno proteasome 0.25 nM (examples 79, 80, 83, 84, 85, 87, 88, 89, 90, 91, 93, 94, 96, 97, 101 and 110)

SMILES: O=C(N[C@@H](Cc1ccsc1)B(O)O)[C@H]1CCC[C@@H]1C(=O)c1ccccc1 (racemic) [Example 5, [1-({[(1RS,2SR)-2-benzoylcyclopentyl]carbonyl}amino)-2-(3-thienyl)ethyl]boronic acid]
- IC50 [1]: > 5000 nM
- IC50 [2, 3]: 500 to 5000 nM

SMILES: COc1ccc(C(=O)CCC(=O)N[C@@H](Cc2cccc(OC(F)(F)F)c2)B(O)O)cc1 [Example 48, (R)-(1-(4-(4-methoxyphenyl)-4-oxobutanamido)-2-(3-(trifluoromethoxy)phenyl)ethyl)boronic acid]
- IC50 [1]: 500 to 5000 nM
- Selectivity LMP7 vs Beta5 [2]: ++ (++: 10 < Selectivity < 30)
- IC50 [2, 3]: 50 to 500 nM

SMILES: O=C(CCn1cnc2ccccc21)N[C@@H](Cc1ccc(OC(F)(F)F)cc1)B(O)O [Example 51, (R)-(1-(3-(1H-benzo[d]imidazol-1-yl)propanamido)-2-(4-(trifluoromethoxy)phenyl)ethyl)boronic acid]
- IC50 [1]: 50 to 500 nM
- Selectivity LMP7 vs Beta5 [2]: + (+: Selectivity < 10)
- IC50 [2, 3]: < 50 nM

SMILES: O=C(CCn1cnc2ccccc21)N[C@@H](Cc1coc2ccccc12)B(O)O [Example 88, (R)-(1-(3-(1H-benzo[d]imidazol-1-yl)propanamido)-2-(benzofuran-3-yl)ethyl)boronic acid]
- IC50 [1]: < 50 nM
- Selectivity LMP7 vs Beta5 [2]: ++ (++: 10 < Selectivity < 30)
- IC50 [2, 4]: < 50 nM

SMILES: O=C(CCn1c(=O)sc2ccccc21)N[C@@H](Cc1csc2ccccc12)B(O)O [Example 105, (R)-(2-(benzo[b]thiophen-3-yl)-1-(3-(2-oxobenzo[d]thiazol-3(2H)-yl)propanamido)ethyl)boronic acid]
- IC50 [1]: < 50 nM
- Selectivity LMP7 vs Beta5 [2]: ++ (++: 10 < Selectivity < 30)
- IC50 [2, 3]: < 50 nM

SMILES: COc1ccc(C(=O)CC(Cc2ccccc2)C(=O)N[C@@H](Cc2ccc(OC(F)(F)F)cc2)B(O)O)cc1 (stereo partly drawn) [Example 44, ((1R)-1-(2-benzyl-4-(4-methoxyphenyl)-4-oxobutanamido)-2-(4-(trifluoromethoxy)phenyl)ethyl)boronic acid]
- IC50 [1]: 50 to 500 nM
- Selectivity LMP7 vs Beta5 [2]: ++ (++: 10 < Selectivity < 30)
- IC50 [2, 3]: < 50 nM

SMILES: CCc1cccc(C[C@H](NC(=O)[C@@H](CC(=O)c2ccccc2)c2ccc(Cl)cc2)B(O)O)c1 (single isomer, unassigned) [Example 16]
- IC50 [1]: > 5000 nM
- IC50 [2, 3]: 500 to 5000 nM

SMILES: O=C(CCn1cc(-c2ccccc2)nn1)N[C@@H](Cc1ccsc1)B(O)O [Example 40, [(1R)-1-{[3-(4-phenyl-1H-1,2,3-triazol-1-yl)propanoyl]amino}-2-(3-thienyl)ethyl]boronic acid]
- IC50 [1]: 50 to 500 nM
- Selectivity LMP7 vs Beta5 [2]: ++ (++: 10 < Selectivity < 30)
- IC50 [2, 3]: < 50 nM

SMILES: COc1ccc(C(=O)C[C@@H](Cc2ccccc2)C(=O)N[C@@H](Cc2ccsc2)B(O)O)cc1 (single isomer, unassigned) [Example 25]
- IC50 [1]: > 5000 nM
- Selectivity LMP7 vs Beta5 [2]: +++ (+++: Selectivity > 30)
- IC50 [2, 3]: 50 to 500 nM

SMILES: O=C(CCc1ccccc1F)N[C@@H](Cc1coc2ccccc12)B(O)O [Example 81, (R)-(2-(benzofuran-3-yl)-1-(3-(2-fluorophenyl)propanamido)ethyl) boronic acid]
- IC50 [1]: < 50 nM
- Selectivity LMP7 vs Beta5 [2]: ++ (++: 10 < Selectivity < 30)
- IC50 [2, 3]: < 50 nM

SMILES: CCc1cccc(C[C@H](NC(=O)CCC(=O)c2ccc(OC)cc2)B(O)O)c1 [Example 7, ((1R)-2-(3-ethylphenyl)-1-{[4-(4-methoxyphenyl)-4-oxobutanoyl]amino}ethyl)boronic acid]
- IC50 [1]: > 5000 nM
- Selectivity LMP7 vs Beta5 [2]: +++ (+++: Selectivity > 30)
- IC50 [2, 3]: 50 to 500 nM

SMILES: COc1cc(F)cc(C[C@H](NC(=O)CCn2cc(-c3ccccc3)nn2)B(O)O)c1 [Example 65, (R)-(2-(3-fluoro-5-methoxyphenyl)-1-(3-(4-phenyl-1H-1,2,3-triazol-1-yl)propanamido)ethyl)boronic acid]
- IC50 [1]: 50 to 500 nM
- Selectivity LMP7 vs Beta5 [2]: ++ (++: 10 < Selectivity < 30)
- IC50 [2, 3]: < 50 nM

SMILES: O=C(CCC1CCCCC1)N[C@@H](Cc1coc2ccccc12)B(O)O [Example 86, (R)-(2-(benzofuran-3-yl)-1-(3-cyclohexylpropanamido)ethyl)boronic acid]
- IC50 [1]: 50 to 500 nM
- Selectivity LMP7 vs Beta5 [2]: +++ (+++: Selectivity > 30)
- IC50 [2, 3]: < 50 nM

SMILES: CCc1cccc(C[C@H](NC(=O)Cn2ccc3ccccc3c2=O)B(O)O)c1 [Example 42, ((1R)-2-(3-ethylphenyl)-1-{[(1-oxoisoquinolin-2(1H)-yl)acetyl]amino}ethyl)boronic acid]
- IC50 [1]: 500 to 5000 nM
- Selectivity LMP7 vs Beta5 [2]: ++ (++: 10 < Selectivity < 30)
- IC50 [2, 3]: 50 to 500 nM

SMILES: O=C(CC(C(=O)N[C@@H](Cc1ccsc1)B(O)O)c1cccc(Cl)c1)c1ccccc1 (mixture of isomers) [Example 3, [(1R)-1-{[2-(RS)-(3-chlorophenyl)-4-oxo-4-phenylbutanoyl]amino}-2-(3-thienyl)ethyl]boronic acid]
- IC50 [1]: > 5000 nM
- Selectivity LMP7 vs Beta5 [2]: +++ (+++: Selectivity > 30)
- IC50 [2, 3]: 50 to 500 nM

SMILES: CCc1cccc(C[C@H](NC(=O)CCc2cn(-c3ccccc3)nn2)B(O)O)c1 [Example 58, (R)-(2-(3-ethylphenyl)-1-(3-(1-phenyl-1H-1,2,3-triazol-4-yl)propanamido)ethyl)boronic acid]
- IC50 [1]: > 5000 nM
- Selectivity LMP7 vs Beta5 [2]: +++ (+++: Selectivity > 30)
- IC50 [2, 3]: 50 to 500 nM

SMILES: COc1cc(C[C@H](NC(=O)CCn2cnc3ccccc32)B(O)O)ccc1C [Example 72, (R)-(1-(3-(1H-benzo[d]imidazol-1-yl)propanamido)-2-(3-methoxy-4-methylphenyl)ethyl)boronic acid]
- IC50 [1]: 500 to 5000 nM
- Selectivity LMP7 vs Beta5 [2]: ++ (++: 10 < Selectivity < 30)
- IC50 [2, 3]: 50 to 500 nM

SMILES: COc1cc(F)cc(C[C@H](NC(=O)CCc2noc(-c3ccccc3)n2)B(O)O)c1 [Example 61, (R)-(2-(3-fluoro-5-methoxyphenyl)-1-(3-(5-phenyl-1,2,4-oxadiazol-3-yl)propanamido)ethyl)boronic acid]
- IC50 [1]: 500 to 5000 nM
- Selectivity LMP7 vs Beta5 [2]: +++ (+++: Selectivity > 30)
- IC50 [2, 3]: < 50 nM

SMILES: O=C(CCn1c(=O)sc2ccccc21)N[C@@H](Cc1ccc2ccccc2c1)B(O)O [Example 96, (R)-(2-(naphthalen-2-yl)-1-(3-(2-oxobenzo[d]thiazol-3(2H)-yl)propanamido)ethyl)boronic acid]
- IC50 [1]: < 50 nM
- Selectivity LMP7 vs Beta5 [2]: +++ (+++: Selectivity > 30)
- IC50 [2, 4]: < 50 nM
